In general, T/C refers to the ratio of treated to control.

Holding throughout (type): functional
Assay [1] concerns P388. Briefly: In vivo antitumor activity against mouse P388 cells at 3.0 mg/kg relative to control.
Assay [2] deals with P388. Briefly: In vivo antitumor activity against mouse P388 cells at 1.5 mg/kg relative to control.
Another assay has as its system KB. Kind of assay: Cytotoxicity against human KB cells by NCI method. As to conditions: read-out: ED50 (the source's name).
In assay [3] the test system is P388. Kind of assay: In vivo antitumor activity against mouse P388 cells at 0.38 mg/kg relative to control.
In assay [4] the test system is P388. Briefly: In vivo antitumor activity against mouse P388 cells at 0.75 mg/kg relative to control.
Assay [5] relates to P388. Briefly: In vivo antitumor activity against mouse P388 cells at 0.31 mg/kg relative to control.
Assay [6] deals with P388. Briefly: In vivo antitumor activity against mouse P388 cells at 0.63 mg/kg relative to control.
For assay [7], the system named is P388. Briefly: In vivo antitumor activity against mouse P388 cells at 1.25 mg/kg relative to control.
Assay [8] deals with P388. Kind of assay: In vivo antitumor activity against mouse P388 cells at 2.5 mg/kg relative to control.

Converted amounts (≈) assume the structure as drawn.

With `CC(C)=CC(=O)O[C@@H]1[C@H]2C(C)=C[C@H](O)[C@H](O)[C@]2(C)[C@H]2[C@]3(O)OC[C@@]24[C@@H]1OC(=O)C[C@H]4[C@@H](C)[C@H]3O`, the T/C with P388 [1] is reported as 133%; with P388 [2] it was 133%; in the assay with P388 [3], 142%; in the assay on P388 [4] it was 160%. Further, the EC50 in the assay with KB came to 3 ng/mL (≈ 6.27 nM).

As to `CC(C)=CC(=O)O[C@@H]1[C@H]2C(C)=CC(=O)[C@H](O)[C@]2(C)[C@H]2[C@]3(O)OC[C@@]24[C@@H]1OC(=O)C[C@H]4[C@@H](C)[C@H]3O`, the T/C in the assay with P388 [5] amounted to 145%; in the assay with P388 [6] it was 176%; in the assay with P388 [7], 133%; with P388 [8], 136%. Further, the EC50 with KB stood at 3 ng/mL (≈ 6.3 nM).

Take `CC1=CC(=O)[C@@H](O)[C@]2(C)[C@H]3[C@@]4(O)OC[C@@]35[C@@H](C[C@@H]12)OC(=O)C[C@H]5[C@@H](C)[C@H]4O` [CHAPARRINONE]: in the assay with KB, the EC50 worked out at 25 ng/mL (≈ 66.1 nM).
